Measurements reported in patent US20240208969A1, “SUBSTITUTED FUSED BICYCLIC COMPOUNDS AS PARP INHIBITORS AND THE USE THEREOF” (IMPACT THERAPEUTICS (SHANGHAI), INC., priority 2021, published 2024).

Experiments:
PARP1 = PARP1 (Homo sapiens, UniProt P09874); experiment: PARP1 chemiluminescent assay; type: biochemical; settings: recombinant PARP1 enzyme activity, chemiluminescence
Procedure: (§1) Mix the solution of recombinant poly ADP ribotransferase 1 and 2 (PARP1 and PARP2) (40 ng enzyme/well) and the compounds to be tested, respectively. And then added to a 96-well plate coated with […] mixture, incubated at room temperature for 1 h. Then add 50 μL 0.3 ng/mL Streptavidin-HRP to each well. The plates were incubated for 30 minutes at room temperature. Finally, the plates were treated with streptavidin-HRP followed by addition of the ELISA ECL substrate to produce chemiluminescence that can then be measured using a chemiluminescence reader. The inhibition rate of the compound to PARP1/2 enzyme activity was calculated according to the following formula. [formula] IC50 value is obtained by fitting the s-shaped dose response curve equation by using XL Fit software. The curve equation is Y=100/(1+10^(log C−log IC50)), C is the compound concentration. Table 1 summarizes the inhibitory effects of compounds on PARP1 and PARP2 enzyme activity (IC50), wherein +++++ indicates IC50≤1 nM; ++++ indicates 1<IC50≤10 nM; +++ indicates 10 nM<IC50≤100 nM: ++ indicates 100 nM<IC50≤1 μM; + indicates IC50>1 μM.

PARP2 = PARP2 (Homo sapiens, UniProt Q9UGN5); experiment: PARP2 chemiluminescent assay; type: biochemical; settings: recombinant PARP2 enzyme activity, chemiluminescence
Procedure: as §1

MDA-MB-436 cells = experiment: Inhibition of proliferation of human breast cancer MDA-MB-436 cell line (CCK-8, 7 days); type: cell-based; settings: Homo sapiens, 168 h, proliferation of MDA-MB-436, 7 days
Procedure: The cells were cultured in complete medium (DMEM medium +10% FBS+Insulin+glutathione). When the confluence reached about 80%, cells were digested and gently dispensed from the bottom of the dish with a 1 mL pipette. Cell suspension was collected and centrifuged at 500 rpm for 3 min. The supernatant was discarded, and the cell pellet were re-suspended in complete medium. The cells were seeded into a culture dish at an appropriate proportion, and then cultured in a 5% CO2 incubator at 37° C. The assay was carried out when the cells were in optimum condition and the confluence was reached 80%. Cells were harvested in the logarithmic growth phase by using 1 mL pipette gently and then centrifugated at 500 rpm for 3 min. The cells were resuspended by using refresh medium after removing the supernatant and then the cells were counted. The cells were seeded at 3000/well in a 96 well plate and incubated at 37° C. 5% CO2 incubator overnight. In the second day, cells were treated with compound at 8 serially diluted dose with 1000×final concentration in 100% DMSO. The compound was prepared as below: 1000×dilution tested compound solution to 40×test compound solution by adding 5μL, 1000×compound solution to 120 μL Medium (25-fold dilution). The solution was mixed by oscillation. DMSO was used as the control.
The medium was removed from the wells in the plate after the plate was taken out from incubator. Then, fresh medium of 195 μL/per well was added to the 96 well plate. 5μL/per well of 40×test compound solution was added into the 96 well plate. Finally, the plate was incubated for 7 days in a 37° C. 5% CO2 incubator. The medium containing compound was changed once on the fourth day. After 7 days, 20 μL of CCK-8 was added to each well and shake gently, then was cultured for 4 hours. The plate was shaken for 5 min after incubation, the absorbance values of 450 nm. and 650nm wavelengths were recorded respectively (OD=absorbance value of 450 nm−absorbance value of 650 nm) by using the multifunction readout instrument.
Data were analyzed by software GraphPad Prism 6.0. The inhibitory activity of compounds on cell proliferation was plotted using cell survival rate against the compound concentration as coordinates. Cell survival rate %=(ODcompound−ODbackground)/(ODDMSO−ODbackground)×100. The IC50 value was fitted by the s-shaped dose response curve equation: Y=100/(1+10^(log C−log IC50)), and C was the compound concentration.
Table 2 summarizes the inhibitory effect data (IC50) of the compounds on the proliferation of human breast cancer cells MDA-MB-436, wherein ++++ indicates 1<IC50≤10 nM; +++ indicates 10 nM<IC50≤100 nM; ++ indicates 100 nM<IC50≤1 μM; + indicates IC50>1 μM.

Sequence of PARP2 (Q9UGN5 whole entry, species assumed): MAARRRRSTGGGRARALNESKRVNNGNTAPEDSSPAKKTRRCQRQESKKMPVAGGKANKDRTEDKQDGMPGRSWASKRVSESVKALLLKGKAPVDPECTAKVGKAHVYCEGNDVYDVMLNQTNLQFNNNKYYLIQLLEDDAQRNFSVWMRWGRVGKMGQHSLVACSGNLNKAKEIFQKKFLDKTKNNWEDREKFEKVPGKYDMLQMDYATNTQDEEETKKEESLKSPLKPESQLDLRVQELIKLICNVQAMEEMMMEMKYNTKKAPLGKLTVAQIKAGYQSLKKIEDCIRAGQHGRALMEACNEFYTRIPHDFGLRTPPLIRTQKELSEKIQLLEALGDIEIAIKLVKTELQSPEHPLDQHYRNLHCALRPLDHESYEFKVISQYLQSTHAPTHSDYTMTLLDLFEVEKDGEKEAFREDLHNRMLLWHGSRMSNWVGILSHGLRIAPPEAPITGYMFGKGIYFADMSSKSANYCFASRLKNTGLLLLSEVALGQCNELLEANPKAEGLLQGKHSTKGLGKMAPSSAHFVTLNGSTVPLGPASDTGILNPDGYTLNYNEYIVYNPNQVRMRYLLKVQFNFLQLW
Sequence of PARP1 (P09874 whole entry): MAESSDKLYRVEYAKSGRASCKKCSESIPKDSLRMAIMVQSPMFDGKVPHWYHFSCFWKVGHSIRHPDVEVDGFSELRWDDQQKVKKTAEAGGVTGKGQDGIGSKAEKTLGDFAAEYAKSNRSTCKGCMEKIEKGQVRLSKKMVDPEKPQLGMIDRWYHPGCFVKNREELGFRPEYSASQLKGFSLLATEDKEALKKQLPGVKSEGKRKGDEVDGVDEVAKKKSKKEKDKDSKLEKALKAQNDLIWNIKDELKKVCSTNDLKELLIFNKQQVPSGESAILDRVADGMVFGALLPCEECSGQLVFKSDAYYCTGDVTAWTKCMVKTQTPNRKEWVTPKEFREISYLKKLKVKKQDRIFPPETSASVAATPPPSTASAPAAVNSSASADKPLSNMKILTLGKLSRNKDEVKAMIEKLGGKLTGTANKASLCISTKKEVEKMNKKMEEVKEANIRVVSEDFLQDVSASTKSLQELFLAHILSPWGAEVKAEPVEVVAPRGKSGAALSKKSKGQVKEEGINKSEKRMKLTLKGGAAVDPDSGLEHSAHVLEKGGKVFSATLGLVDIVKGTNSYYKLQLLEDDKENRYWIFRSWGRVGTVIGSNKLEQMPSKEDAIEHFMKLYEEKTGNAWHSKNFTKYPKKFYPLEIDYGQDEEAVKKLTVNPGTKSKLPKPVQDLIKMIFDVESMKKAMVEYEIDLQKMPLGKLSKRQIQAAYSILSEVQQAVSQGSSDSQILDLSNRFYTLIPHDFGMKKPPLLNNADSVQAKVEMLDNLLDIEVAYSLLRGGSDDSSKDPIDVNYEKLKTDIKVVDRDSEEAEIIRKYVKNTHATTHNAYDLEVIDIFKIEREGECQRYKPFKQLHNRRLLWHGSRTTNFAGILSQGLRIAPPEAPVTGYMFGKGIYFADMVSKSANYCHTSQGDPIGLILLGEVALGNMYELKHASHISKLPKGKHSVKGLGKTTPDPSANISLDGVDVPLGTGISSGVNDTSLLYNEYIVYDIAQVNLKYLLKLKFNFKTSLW

## CCn1c(=O)[nH]c2cc(CN3CCN(c4ccc(C(=O)NC)nc4)CC3)cnc2c1=O [Example 1, 5-(4-((3-ethyl-2,4-dioxo-1,2,3,4-tetrahydropyrido[3,2-d]pyrimidin-7-yl)methyl)piperazin-1-yl)-N-methylpicolinamide]
PARP1
  IC50: ≤ 1 nM
PARP2
  IC50: 100 to 1000 nM
MDA-MB-436 cells
  IC50: > 1000 nM

## CNC(=O)c1ccc(N2CCN(Cc3cnc4c(=O)n(C(C)C)c(=O)[nH]c4c3)CC2)cn1 [Example 3, 5-(4-((3-isopropyl-2,4-dioxo-1,2,3,4-tetrahydropyrido[3,2-d]pyrimidin-7-yl)methyl)piperazin-1-yl)-N-methylpicolinamide]
PARP1
  IC50: 10 to 100 nM
PARP2
  IC50: > 1000 nM
MDA-MB-436 cells
  IC50: > 1000 nM

## CCn1c(=O)[nH]c2cc(CN3CCN(c4ccc(C(=O)NC)nc4C)CC3)cnc2c1=O [Example 4, 5-(4-((3-ethyl-2,4-dioxo-1,2,3,4-tetrahydropyrido[3,2-d]pyrimidin-7-yl)methyl)piperazin-1-yl)-N,6-dimethylpicolinamide]
PARP1
  IC50: 1 to 10 nM
PARP2
  IC50: > 1000 nM
MDA-MB-436 cells
  IC50: 10 to 100 nM

## CCCn1c(=O)[nH]c2cc(CN3CCN(c4ccc(C(=O)NC)nc4)CC3)cnc2c1=O [Example 7]
PARP1
  IC50: ≤ 1 nM
PARP2
  IC50: > 1000 nM
MDA-MB-436 cells
  IC50: > 1000 nM

## CCn1c(=O)[nH]c2cc(CN3CCN(c4ccc(C(=O)NC)nc4Cl)CC3)cnc2c1=O [Example 10, 5-(4-((3-ethyl-2,4-dioxo-1,2,3,4-tetrahydropyrido[3,2-d]pyrimidin-7-yl)methyl)piperazin-1-yl)-6-chloro-N-methylpicolinamide]
PARP1
  IC50: 1 to 10 nM
PARP2
  IC50: > 1000 nM
MDA-MB-436 cells
  IC50: > 1000 nM

## CCn1c(=O)[nH]c2cc(CN3CCN(c4ccc(C(=O)NC)nc4)CC3)ccc2c1=O [Example 12, 5-(4-((3-ethyl-2,4-dioxo-1,2,3,4-tetrahydroquinazolin-7-yl)methyl)piperazin-1-yl)-N-methylpicolinamide]
PARP1
  IC50: 1 to 10 nM
PARP2
  IC50: 100 to 1000 nM
MDA-MB-436 cells
  IC50: 10 to 100 nM

## CCn1c(=O)[nH]c2cc(CN3CCN(c4ccc(C(=O)NC)nc4F)CC3)ccc2c1=O [Example 13, 5-(4-((3-ethyl-2,4-dioxo-1,2,3,4-tetrahydroquinazolin-7-yl)methyl)piperazin-1-yl)-6-fluoro-N-methylpicolinamide]
PARP1
  IC50: 1 to 10 nM
PARP2
  IC50: 100 to 1000 nM
MDA-MB-436 cells
  IC50: 1 to 10 nM

## CCn1c(=O)[nH]c2cc(CN3CCN(c4ccc(C(=O)NC)nc4F)CC3)c(F)cc2c1=O [Example 14, 5-(4-((3-ethyl-6-fluoro-2,4-dioxo-1,2,3,4-tetrahydroquinazolin-7-yl)methyl)piperazin-1-yl)-6-fluoro-N-methylpicolinamide]
PARP1
  IC50: 1 to 10 nM
PARP2
  IC50: 100 to 1000 nM
MDA-MB-436 cells
  IC50: 10 to 100 nM

## CCN1Cc2ccc(CN3CCN(c4ccc(C(=O)NC)nc4)CC3)cc2NC1=O [Example 15, 5-(4-((3-ethyl-2-oxo-1,2,3,4-tetrahydroquinazolin-7-yl)methyl)piperazin-1-yl)-N-methylpicolinamide]
PARP1
  IC50: 1 to 10 nM
PARP2
  IC50: > 1000 nM
MDA-MB-436 cells
  IC50: 100 to 1000 nM

## CCn1c(=O)[nH]c2cc(CN3CCN(c4ccc(C(=O)NC)nc4)CC3)ccc21 [Example 16, 5-(4-((1-ethyl-2-oxo-2,3-dihydro-1H-benzo[d]imidazol-5-yl)methyl)piperazin-1-yl)-N-methylpicolinamide]
PARP1
  IC50: > 1000 nM
PARP2
  IC50: > 1000 nM
MDA-MB-436 cells
  IC50: > 1000 nM

## CNC(=O)c1ccc(N2CCN(Cc3ccc4c(=O)n(C)c(=O)[nH]c4c3)CC2)c(F)n1 [Example 17, 5-(4-((3-methyl-2,4-dioxo-1,2,3,4-tetrahydroquinazolin-7-yl)methyl)piperazin-1-yl)-6-fluoro-N-methylpicolinamide]
PARP1
  IC50: 1 to 10 nM
PARP2
  IC50: > 1000 nM
MDA-MB-436 cells
  IC50: 10 to 100 nM

## CCCn1c(=O)[nH]c2cc(CN3CCN(c4ccc(C(=O)NC)nc4F)CC3)ccc2c1=O [Example 19, 5-(4-((2,4-dioxo-3-propyl-1,2,3,4-tetrahydroquinazolin-7-yl)methyl)piperazin-1-yl)-6-fluoro-N-methylpicolinamide]
PARP1
  IC50: 1 to 10 nM
PARP2
  IC50: > 1000 nM
MDA-MB-436 cells
  IC50: 10 to 100 nM

## CCn1c(=O)[nH]c2cc(CN3CCN(c4ccc(C(=O)NC)nc4Cl)CC3)ccc2c1=O [Example 21, 5-(4-((3-ethyl-2,4-dioxo-1,2,3,4-tetrahydroquinazolin-7-yl)methyl)piperazin-1-yl)-6-chloro-N-methylpicolinamide]
PARP1
  IC50: ≤ 1 nM
PARP2
  IC50: 10 to 100 nM
MDA-MB-436 cells
  IC50: 1 to 10 nM

## CCn1c(=O)[nH]c2cc(CN3CCN(c4ccc(C(=O)NC)nc4C)CC3)ccc2c1=O [Example 22, 5-(4-((3-ethyl-2,4-dioxo-1,2,3,4-tetrahydroquinazolin-7-yl)methyl)piperazin-1-yl)-N,6-dimethylpicolinamide]
PARP1
  IC50: 1 to 10 nM
PARP2
  IC50: > 1000 nM
MDA-MB-436 cells
  IC50: 1 to 10 nM

## CCNC(=O)c1ccc(N2CCN(Cc3cc(F)c4c(c3)NC(=O)N(CC)C4)CC2)c(Cl)n1 [Example 122, 6-chloro-N-ethyl-5-(4-((3-ethyl-5-fluoro-2-oxo-1,2,3,4-tetrahydroquinazolin-7-yl)methyl)piperazin-1-yl)picolinamide]
PARP1
  IC50: 1 to 10 nM
MDA-MB-436 cells
  IC50: 10 to 100 nM

## CCN1Cc2ccc(CN3CCN(c4ccc(C(=O)NC5CC5)nc4Cl)CC3)cc2NC1=O [Example 132, 6-chloro-N-cyclopropyl-5-(4-((3-ethyl-2-oxo-1,2,3,4-tetrahydroquinazolin-7-yl)methyl)piperazin-1-yl)picolinamide]
MDA-MB-436 cells
  IC50: 1 to 10 nM

## CCN1Cc2c(F)cc(CN3CCN(c4ccc(C(=O)NC)nc4F)CC3)cc2NC1=O [Example 134, 5-(4-((3-ethyl-5-fluoro-2-oxo-1,2,3,4-tetrahydroquinazolin-7-yl)methyl)piperazin-1-yl)-6-fluoro-N-methylpicolinamide]
MDA-MB-436 cells
  IC50: 10 to 100 nM

## CCn1c(=O)[nH]c2cc(CN3CCN(c4ccc(C(=O)NC)nc4F)CC3)cc(Cl)c2c1=O [Example 136, 5-(4-((5-chloro-3ethyl-2,4-dioxo-1,2,3,4-tetrahydroquinazolin-7-yl)methyl)piperazin-1-yl)-6-fluoro-N-methylpicolinamide]
MDA-MB-436 cells
  IC50: 1 to 10 nM

## CCN1Cc2ccc(CN3CCN(c4ccc(C(=O)NC5CC5)nc4C)CC3)cc2NC1=O [Example 137, N-cyclopropyl-5-(4-((3-ethyl-2-oxo-1,2,3,4-tetrahydroquinazolin-7-yl)methyl)piperazin-1-yl)-6-methylpicolinamide]
MDA-MB-436 cells
  IC50: 10 to 100 nM

## CNC(=O)c1ccc(N2CCN(Cc3ccc4c(=O)n(C)c(=O)[nH]c4c3F)CC2)c(F)n1 [Example 138, 6-fluoro-5-(4-((8-fluoro-3-methyl-2,4-dioxo-1,2,3,4-tetrahydroquinazolin-7-yl)methyl)piperazin-1-yl)-N-methylpicolinamide]
MDA-MB-436 cells
  IC50: 10 to 100 nM

## CCn1c(=O)[nH]c2cc(CN3CCN(c4ccc(C(=O)NC5CC5)nc4F)CC3)cc(F)c2c1=O [Example 141, N-cyclopropyl-5-(4-((3-ethyl-5-fluoro-2,4-dioxo-1,2,3,4-tetrahydroquinazolin-7-yl)methyl)piperazin-1-yl)-6-fluoropicolinamide]
MDA-MB-436 cells
  IC50: 1 to 10 nM

## CCN1Cc2ncc(CN3CCN(c4ccc(C(=O)NC)nc4)CC3)cc2NC1=O [Example 144, 5-(4-((3-ethyl-2-oxo-1,2,3,4-tetrahydropyrido[3,2-d]pyrimidin-7-yl)methyl)piperazin-1-yl)-N-methylpicolinamide]
MDA-MB-436 cells
  IC50: 10 to 100 nM
